{"source": "patent US11986464B2", "about": "“5HT3R antagonist for use in treating aneurysms and cardiovascular risk” (University of Kentucky Research Foundation, priority 2021, dated 2024)", "key": {"[1]": {"test_system": "AngII-infused XYM Ldlr−/− mice", "assay": "Incidence and grading of AngII-induced abdominal aortic aneurysms", "format": "in vivo", "conditions": "for mice with Abdominal Aneurysm Grade 0: 0 = no aneurysm; for mice with Abdominal Aneurysm Grade 4: 4 being a rupture", "method": "(§1) Male mice (XYM Ldlr−/−) were fed a Western diet (high fat, high sucrose, high cholesterol) beginning one week prior to the start of treatments. XYM Ldlr−/− mice were then administered two different doses of Trop (10 or 20 mg/kg/day) by osmotic minipump for 7 days. The minipumps were then replaced with new pumps containing both AngII (1,000 ng/kg/min) and Trop and treatment was continued for 28 days."}, "[2]": {"test_system": "AngII-infused XYM Ldlr−/− mice", "assay": "Systolic and diastolic blood pressure induced by AngII", "format": "in vivo", "conditions": "for mean systolic blood pressure: ±SEM", "method": "as §1\nBlood pressures were taken on five consecutive days. Measurements from the last three days were used to calculate blood pressures for each group. The mean systolic blood pressures are in mm Hg (±SEM): AngII=149±3.4; Trop 10=146±5.6; Trop 20=128±4.4. The mean diastolic blood pressures were in mm Hg: AngII=86±4.0; Trop 10=83±6.0; Trop 20=70±4.1 (FIG. 21)."}, "[3]": {"test_system": "AngII-infused XYM Ldlr−/− mice", "assay": "Maximal external diameters of excised abdominal aortas", "format": "in vivo", "conditions": "±SEM", "method": "as §1, with “28 days. External abdominal aortic diameters were quantified on excised, cleaned tissue mounted on a black wax background. A Nikon SMZ800 dissecting microscope was used to obtain aorta images and the maximal external diameter of the abdominal aorta was measured using Nikon NIS-Elements Version 5.2.” for “28 days.”"}, "[4]": {"test_system": "AngII-infused XYM Ldlr−/− mice", "assay": "Ultrasound internal lumen diameters of abdominal aortas", "format": "in vivo", "conditions": "for average internal lumen diameter of abdominal aorta on Day 27: ultrasound, ±SEM, in mm (unit assumed)", "method": "as §1\nInternal lumen diameters of abdominal aortas from AngII treated mice treated with either dose of tropisetron were smaller than those from the AngII alone group after 27 days of treatment (FIG. 18). The average diameters on Day 27 were: AngII=1.77±0.35; Trop 10=1.32±0.23; Trop 20=1.20±0.28 (±SEM, *P<0.05 compared to AngII). The average diameters in all three groups increased from their baseline values with the AngII group having the largest increase followed by the Trop 20 and then Trop 10 group. […] An increase of 50% or more is considered an aneurysm."}, "[5]": {"test_system": "AngII-infused XYM Ldlr−/− mice", "assay": "Atherosclerosis quantified en face (aortic arch, thoracic aorta)", "format": "in vivo", "method": "as §1\nAtherosclerosis was quantified en face in the aortic arch. Briefly, the entire length of the aorta was removed and the intimal surface exposed, in its entirety, by a longitudinal cut through the inner curvature of the aortic arch and down the anterior aspect of the remaining aorta. A cut is also made through the greater curvature of the aortic arch to the subclavian branch. The tissue is then pinned to a dark surface. Arch areas were defined by drawing a 3-mm line from the left subclavian artery. The intimal area of the aortic arch was defined as the region from the orifice of innominate artery to the orifice of the left subclavian artery. Thoracic areas were defined by drawing a 9 mm line from the end of the arch area to the diaphragm muscle. Atherosclerotic areas were quantified by drawing a line around the borders and summing the total area of each. Lesions were summed and divided by the total arch or thoracic area to calculate the percent lesion area. Measurements were performed using Nikon NIS-Elements Version 5.2."}, "[6]": {"test_system": "AngII-infused XY male Ldlr−/− mice (XYM)", "assay": "AngII-induced aortic pathology (DTA, AA) and aortic weights", "format": "in vivo", "conditions": "for mean weight of the aortas: 7 days then 28 days with AngII 1,000 ng/kg/min, ±SEM", "method": "Tropisetron (Trop) is an exemplary 5HT3R antagonist used in these studies.^136 Effects of Trop were tested against AngII-induced aortic pathology in XY male Ldlr−/− mice (XYM). […] Mice were fed a Western diet (high fat, high sucrose, high cholesterol) beginning one week prior to the start of treatments. XYM Ldlr−/− mice were administered two different doses of Trop (10 or 20 mg/kg/day) by osmotic minipump for 7 days. The minipumps were then replaced with new pumps containing both AngII (1,000 ng/kg/min) and Trop and treatment was continued for 28 days. Aortas were removed from the iliac bifurcation to the end of the arch and fixed in formalin. Aortas were then cleaned and weighed."}, "[7]": {"test_system": "AngII-infused XYM Ldlr−/− mice", "assay": "Serum cholesterol and triglycerides by enzymatic assay kits", "format": "in vivo", "conditions": "in mg/dL (unit assumed)", "method": "as §1, with “28 days. Concentrations of total serum cholesterol, triglycerides and free fatty acids were quantified (blood collected from cardiac puncture) using enzymatic assay kits.” for “28 days.”"}, "[8]": {"test_system": "Htr3a mRNA", "conditions": "nicotine co-infused with AngII, compared to AngII", "method": "(§2) Mice were fed a Western diet beginning one week prior to co-infusion of AngII (1,000 ng/kg/min) and nicotine (4 mg/kg/day^130). Ultrasound as used to quantify internal lumen diameters of AA to calculate the percentage of mice with pathology (50% increase compared to day 0 of infusions; FIG. 12A). […] Aortas were harvested for RNA extraction, and thus DTA maximal diameters could not be quantified at study endpoint.\nTo define potential mechanisms for these effects, and whether they are linked to 5HT3R, Htr3a mRNA abundance was quantified in DTA and AA of XXF and XYM AngII-infused mice."}, "[9]": {"test_system": "AngII-infused XXF and XYM Ldlr−/− mice", "conditions": "nicotine 4 mg/kg/day co-infused with AngII 1,000 ng/kg/min", "method": "as §2"}, "[10]": {"conditions": "Trop 10 or 20 mg/kg/day, compared to AngII alone"}}, "data": [{"smiles": "CN1[C@@H]2CC[C@H]1C[C@@H](OC(=O)c1c[nH]c3ccccc13)C2", "note": "[Trop]", "values": [{"measurement": "% Incidence of abdominal aneurysms", "setting": "[1]; Trop 10 mg/kg/day", "result": 30, "unit": "%"}, {"measurement": "mice with Abdominal Aneurysm Grade 1", "setting": "[1]; Trop 10 mg/kg/day", "result": 3}, {"measurement": "mice with Abdominal Aneurysm Grade 2", "setting": "[1]; Trop 10 mg/kg/day", "result": 0}, {"measurement": "mice with Abdominal Aneurysm Grade 3", "setting": "[1]; Trop 10 mg/kg/day", "result": 0}, {"measurement": "mice with Abdominal Aneurysm Grade 0", "setting": "[1]; Trop 10 mg/kg/day", "result": 7}, {"measurement": "mice with Abdominal Aneurysm Grade 4", "setting": "[1]; Trop 10 mg/kg/day", "result": 0}, {"measurement": "% Incidence of abdominal aneurysms", "setting": "[1]; Trop 20 mg/kg/day", "result": 20, "unit": "%"}, {"measurement": "mice with Abdominal Aneurysm Grade 1", "setting": "[1]; Trop 20 mg/kg/day", "result": 0}, {"measurement": "mice with Abdominal Aneurysm Grade 2", "setting": "[1]; Trop 20 mg/kg/day", "result": 1}, {"measurement": "mice with Abdominal Aneurysm Grade 3", "setting": "[1]; Trop 20 mg/kg/day", "result": 0}, {"measurement": "mice with Abdominal Aneurysm Grade 0", "setting": "[1]; Trop 20 mg/kg/day", "result": 8}, {"measurement": "mice with Abdominal Aneurysm Grade 4", "setting": "[1]; Trop 20 mg/kg/day", "result": 1}, {"measurement": "mean diastolic blood pressure", "setting": "[2]; Trop 10 mg/kg/day", "result": "83±6.0", "unit": "mm Hg"}, {"measurement": "mean systolic blood pressure", "setting": "[2]; Trop 10 mg/kg/day", "result": "146±5.6", "unit": "mm Hg"}, {"measurement": "mean diastolic blood pressure", "setting": "[2]; Trop 20 mg/kg/day", "result": "70±4.1", "unit": "mm Hg"}, {"measurement": "mean systolic blood pressure", "setting": "[2]; Trop 20 mg/kg/day", "result": "128±4.4", "unit": "mm Hg"}, {"measurement": "mean external diameter of abdominal aorta", "setting": "[3]; Trop 10 mg/kg/day", "result": "1.08±0.13", "unit": "mm"}, {"measurement": "mean external diameter of abdominal aorta", "setting": "[3]; Trop 20 mg/kg/day", "result": "0.87±0.11", "unit": "mm"}, {"measurement": "average internal lumen diameter of abdominal aorta on Day 27", "setting": "[4]; Trop 10 mg/kg/day", "result": "1.32±0.23"}, {"measurement": "percent increase in abdominal aorta diameters on Day 27 compared to Day 0", "setting": "[4]; Trop 20 mg/kg/day, compared to AngII, P<0.05", "result": "significantly different"}, {"measurement": "average internal lumen diameter of abdominal aorta on Day 27", "setting": "[4]; Trop 20 mg/kg/day", "result": "1.20±0.28"}, {"measurement": "atherosclerosis (percent lesion area) in the thoracic aortas", "setting": "[5]; tropisetron 10 mg/kg/day", "result": "14.14±6.4", "unit": "%"}, {"measurement": "percent lesion surface area of the aortic arch", "setting": "[5]; tropisetron 10 mg/kg/day", "result": "14.92±5.3", "unit": "%"}, {"measurement": "atherosclerosis (percent lesion area) in the thoracic aortas", "setting": "[5]; tropisetron 20 mg/kg/day", "result": "7.43±7.95", "unit": "%"}, {"measurement": "percent lesion surface area of the aortic arch", "setting": "[5]; tropisetron 20 mg/kg/day", "result": "4.24±3.5", "unit": "%"}, {"measurement": "mean weight of the aortas", "setting": "[6]; Trop 10 mg/kg/day by osmotic minipump", "result": 0.035, "unit": "g"}, {"measurement": "mean weight of the aortas", "setting": "[6]; Trop 20 mg/kg/day by osmotic minipump", "result": 0.023, "unit": "g"}, {"measurement": "percentage of AngII-induced pathology of AA", "setting": "[6]; [10]", "result": "dose-dependent reduction"}, {"measurement": "percentage of AngII-induced pathology of DTA", "setting": "[6]; [10]", "result": "dose-dependent reduction"}, {"measurement": "serum cholesterol level", "setting": "[7]; Trop 10 mg/kg/day", "result": "1683±109.5"}, {"measurement": "serum triglyceride level", "setting": "[7]; Trop 10 mg/kg/day", "result": "652±73.6"}, {"measurement": "serum cholesterol level", "setting": "[7]; Trop 20 mg/kg/day", "result": "1437±46.7"}, {"measurement": "serum triglyceride level", "setting": "[7]; Trop 20 mg/kg/day", "result": "549±54.4"}]}, {"smiles": "CN1CCCC1c1cccnc1", "note": "(stereo not drawn) [nicotine]", "values": [{"measurement": "Htr3a mRNA abundance in AA", "setting": "[8]; XXF and XYM mice", "result": "significant increase"}, {"measurement": "Htr3a mRNA abundance in DTA", "setting": "[8]", "result": "no effect"}, {"measurement": "percentage of mice with pathology within the AA (50% increase in internal lumen diameter compared to day 0)", "setting": "[9]", "result": 50, "unit": "%"}]}]}
